Values after ≈ are worked out from the molar mass of the structure shown. Active and inactive are the calls of the source. The rule behind the calls is not given here.
What was measured:
Staphylococcus aureus [1] = test: Antibacterial activity against methicillin-resistant Staphylococcus aureus assessed as bacterial growth inhibition incubated for 18 hrs by CLSI protocol based Mueller-Hinton broth assay; assay type: functional
Enterococcus faecalis = test: Antibacterial activity against Enterococcus faecalis assessed as bacterial growth inhibition incubated for 18 hrs by CLSI protocol based Mueller-Hinton broth assay; assay type: functional
Escherichia coli = test: Antibacterial activity against Escherichia coli assessed as bacterial growth inhibition incubated for 18 hrs by CLSI protocol based Mueller-Hinton broth assay; assay type: functional
[2] = tested on: Stenotrophomonas maltophilia; test: Antibacterial activity against Stenotrophomonas maltophilia assessed as bacterial growth inhibition incubated for 18 hrs by CLSI protocol based Mueller-Hinton broth assay; assay type: functional
Erythrocyte = test: (§1) Hemolytic activity in sheep RBC assessed as hemolysis incubated for 1 hr by microplate reader method; assay type: toxicity, cell-based, Ovis aries; conditions: erythrocyte, 1 h
[3] = Selectivity index, ratio of HC50 for hemolytic activity in sheep RBC to MIC for antibacterial activity against methicillin-resistant Staphylococcus aureus assessed as bacterial growth inhibition; assay type: toxicity; conditions: for Ratio: erythrocytes; for selectivity ratio: sheep red blood cells
[4] = as §1; assay type: toxicity, cell-based, Ovis aries, Erythrocyte; conditions: sheep red blood cells
Staphylococcus aureus [5] = test: Antibacterial activity against methicillin-resistant Staphylococcus aureus clinical isolates assessed as bacterial growth inhibition incubated for 18 hrs by CLSI protocol based Mueller-Hinton broth assay; assay type: functional
[6] = Cytotoxicity against HUVEC cells assessed as reduction in cell viability incubated for 72 hrs by CCK8 assay; assay type: toxicity, cell-based; conditions: human
Staphylococcus aureus [7] = test: Bactericidal activity against methicillin-resistant Staphylococcus aureus at 3 ug/ml measured after 12 hrs by time-killing kinetics assay; assay type: functional, organism-based; conditions: dose 3.0 µg/ml
Staphylococcus aureus [8] = test: In vivo antibacterial activity against methicillin-resistant Staphylococcus aureus infected in SPF Kunming mouse assessed as reduction in amount of bacteria measure per abscess at 5 mg/kg ,ip administered every 12 hrs for 3 consecutive days; assay type: functional; conditions: time 3 day
Staphylococcus aureus [9] = test: In vivo antibacterial activity against methicillin-resistant Staphylococcus aureus infected in SPF Kunming mouse assessed as reduction in neutrophils in skin tissue at 10 mg/kg ,ip administered every 12 hrs for 3 consecutive days; assay type: functional, organism-based; conditions: time 3.0 day
Staphylococcus aureus [10] = test: In vivo antibacterial activity against methicillin-resistant Staphylococcus aureus infected in SPF Kunming mouse assessed as reduction in inflammation in skin tissue at 10 mg/kg ,ip administered every 12 hrs for 3 consecutive days; assay type: functional, organism-based; conditions: time 3.0 day
Staphylococcus aureus [11] = test: Bactericidal activity against methicillin-resistant Staphylococcus aureus assessed as reduction in turbidity at 3 ug/ml measured after 6 hrs; assay type: functional, organism-based; conditions: dose 3.0 µg/ml
Staphylococcus aureus [12] = test: Antibacterial activity against methicillin-resistant Staphylococcus aureus assessed as resistance development by measuring increase in MIC measured after 14 days by resistance development assay (reference value: 1 ug/ml); assay type: functional; conditions: 336 h, time 14 day
[13] = Staphylococcus aureus, read-out: MIC
[14] = Enterococcus faecalis, 18 h, read-out: MIC
[15] = Escherichia coli, 18 h, read-out: MIC
[16] = Stenotrophomonas maltophilia, read-out: MIC

Row | Structure (SMILES) | MIC (Staphylococcus aureus [1]; [13]) [µg/mL] | MIC (Enterococcus faecalis; [14]) [µg/mL] | MIC (Escherichia coli; [15]) [µg/mL] | MIC [2, 16] [µg/mL] | HC50 at 1 h [4] [µg/mL] | selectivity ratio [3] | MIC (Staphylococcus aureus [5]) [µg/mL] | further results
1 | CCCCCCCCN(CCCOc1ccc2ccccc2c1-c1c(OCCCN(CCCCCCCC)C(=O)[C@@H](N)CCCCN)ccc2ccccc12)C(=O)[C@@H](N)CCCCN.Cl.Cl.Cl.Cl (stereo in doubt; 8r) | – | – | – | – | – | – | – | MIC (Staphylococcus aureus [1]): 4 µg/mL; MIC (Enterococcus faecalis): 2 µg/mL; MIC (Escherichia coli; 18 h): 4 µg/mL; MIC [2]: 4 µg/mL; HC50 (Erythrocyte): 136 µg/mL; Ratio [3]: 34
2 | CCCCCCCN(CCCOc1ccc2ccccc2c1-c1c(OCCCN(CCCCCCC)C(=O)[C@@H](N)CCCCN)ccc2ccccc12)C(=O)[C@@H](N)CCCCN.Cl.Cl.Cl.Cl (stereo in doubt; 8q) | – | – | – | – | – | – | – | MIC (Staphylococcus aureus [1]): 2 µg/mL; MIC (Enterococcus faecalis; 18 h): 1 µg/mL; MIC (Escherichia coli): 2 µg/mL; MIC [2]: 2 µg/mL; HC50 (Erythrocyte): 7 µg/mL; Ratio [3]: 3.5
3 | CCCCCCCN(CCOc1ccc(OCCN(CCCCCCC)C(=O)[C@@H](N)CCCCN)cc1)C(=O)[C@@H](N)CCCCN.Cl.Cl.Cl.Cl | 1 | 1 | 4 | 2 | 478 | 478 | 0.5 | –
4 | CCCCCCN(CCCCOc1ccc(OCCCCN(CCCCCC)C(=O)[C@@H](N)CCCCN)cc1)C(=O)[C@@H](N)CCCCN.Cl.Cl.Cl.Cl | 4 | 4 | 4 | 4 | 868 | 217 | 0.5 | –
5 | C=C[C@]1(C)C[C@@H](OC(=O)CS[C@@H]2C[C@H]3CC[C@@H](C2)N3C)[C@]2(C)[C@H](C)CC[C@]3(CCC(=O)[C@H]32)[C@@H](C)[C@@H]1O [RETAPAMULIN] | – | – | – | – | – | – | – | CC50 at 72 h [6]: 25.5 µg/mL (≈ 49.2 µM)
6 | CN[C@H](CC(C)C)C(=O)N[C@H]1C(=O)N[C@@H](CC(N)=O)C(=O)N[C@H]2C(=O)N[C@H]3C(=O)N[C@H](C(=O)N[C@H](C(=O)O)c4cc(O)cc(O)c4-c4cc3ccc4O)[C@H](O)c3ccc(c(Cl)c3)Oc3cc2cc(c3O[C@@H]2O[C@H](CO)[C@@H](O)[C@H](O)[C@H]2O[C@H]2C[C@](C)(N)[C@H](O)[C@H](C)O2)Oc2ccc(cc2Cl)[C@H]1O [VANCOMYCIN] | – | – | – | – | > 1000 | – | – | Activity (Staphylococcus aureus [7]): Active; Activity (Staphylococcus aureus [8]): 14454.4 CFU; Activity (Staphylococcus aureus [9]): Active; Activity (Staphylococcus aureus [10]): Active; Activity (Staphylococcus aureus [11]): Active
7 | CCCCCCN(CCCOc1ccc2ccccc2c1-c1c(OCCCN(CCCCCC)C(=O)[C@@H](N)CCCCN)ccc2ccccc12)C(=O)[C@@H](N)CCCCN.Cl.Cl.Cl.Cl (stereo in doubt; 8p) | – | – | – | – | – | – | – | MIC (Staphylococcus aureus [1]): 1 µg/mL; MIC (Enterococcus faecalis): 1 µg/mL; MIC (Escherichia coli): 2 µg/mL; MIC [2]: 1 µg/mL; HC50 (Erythrocyte): 117 µg/mL; Ratio [3]: 117
8 | CC[C@H](C)[C@H](NC(=O)CN)C(=O)NCC(=O)N[C@@H](C)C(=O)N[C@H](C(=O)N[C@@H](CC(C)C)C(=O)N[C@@H](CCCCN)C(=O)N[C@H](C(=O)N[C@@H](CC(C)C)C(=O)N[C@H](C(=O)N[C@H](C(=O)NCC(=O)N[C@@H](CC(C)C)C(=O)N1CCC[C@H]1C(=O)N[C@@H](C)C(=O)N[C@@H](CC(C)C)C(=O)N[C@H](C(=O)N[C@@H](CO)C(=O)N[C@@H](Cc1c[nH]c2ccccc12)C(=O)N[C@H](C(=O)N[C@@H](CCCCN)C(=O)N[C@@H](CCCNC(=N)N)C(=O)N[C@@H](CCCCN)C(=O)N[C@@H](CCCNC(=N)N)C(=O)N[C@@H](CCC(N)=O)C(=O)N[C@@H](CCC(N)=O)C(N)=O)[C@@H](C)CC)[C@@H](C)CC)[C@@H](C)O)[C@@H](C)O)C(C)C)C(C)C [MELITTIN] | – | – | – | – | – | – | – | CC50 at 72 h [6]: 5.8 µg/mL (≈ 2.04 µM)
9 | CCCCCCCN(CCCOc1ccc2ccccc2c1-c1c(OCCCN(CCCCCCC)C(=O)[C@@H](N)CCCCN)ccc2ccccc12)C(=O)[C@@H](N)CCCCN.Cl.Cl.Cl.Cl (stereo in doubt; 8n) | 2 | 2 | 2 | 2 | – | – | – | HC50 (Erythrocyte): 31 µg/mL; Ratio [3]: 15.5
10 | CCCCCCCN(CCCOc1ccccc1OCCCN(CCCCCCC)C(=O)[C@@H](N)CCCCN)C(=O)[C@@H](N)CCCCN.Cl.Cl.Cl.Cl | 2 | 1 | 16 | 8 | > 1000 | > 500 | 0.5 | –
11 | CCCCCCCN(CCCOc1ccc(OCCCN(CCCCCCC)C(=O)[C@@H](N)CCCCN)cc1)C(=O)[C@@H](N)CCCCN.Cl.Cl.Cl.Cl | 2 | 1 | 4 | 2 | 402 | 201 | 0.5 | –
12 | CCCCCCN(CCCOc1ccc2c(OCCCN(CCCCCC)C(=O)[C@@H](N)CCCCN)cccc2c1)C(=O)[C@@H](N)CCCN.Cl.Cl.Cl.Cl | 2 | 2 | 2 | 2 | 612 | 306 | 0.5 | –
13 | CCn1cc(C(=O)O)c(=O)c2cc(F)c(N3CCNCC3)cc21 [NORFLOXACIN] | – | – | – | – | – | – | – | MIC (Staphylococcus aureus [12]): 128 µg/mL (≈ 401 µM)
14 | CCCCCCN(CCCOc1ccc(OCCCN(CCCCCC)C(=O)[C@@H](N)CCCCN)cc1)C(=O)[C@@H](N)CCCCN.Cl.Cl.Cl.Cl | 4 | 4 | 16 | 16 | > 1000 | > 250 | 0.5 | –

— ChEMBL document CHEMBL5338785, “Development of Aromatic-Linked Diamino Acid Antimicrobial Peptide Mimics with Low Hemolytic Toxicity and Excellent Activity against Methicillin-Resistant Staphylococcus aureus (MRSA)” (J Med Chem, 2023)
